Columns and labels:
[1] = test system: fixed human osteosarcoma U-2 OS cells; experiment: Labelling of fixed cells, wide-field fluorescence microscopy; type: cell-based; conditions: 20 μM, 1 h exposure in PBS, FIG. 2
Protocol: Cells were seeded in a 24 well coverslip bottomed-plate, cultured overnight in McCoys media. 24 or 48 hours later the cells were washed gently with 3×2 mL PBS per well. The PBS was removed and 0.5 mL of 4% paraformaldehyde solution [a 4% paraformaldehyde solution in PBS was made fresh each time from a 16% stock solution (Thermo Fisher Scientific)] was added in each well and cells were incubated for 30 min. The paraformaldehyde was removed and cells were washed 3×2 mL PBS per well. 1 mL of PBS or HEPES was added to each well.
(§1) Before analysis, cells were incubated at 37° C. in the dark for the period designated. Samples were analysed directly without any further washing step. For live cell labelling cells were seeded, plated in a similar way, into a similar multi-well dish for optimal optical performance and could be used across all microscope platforms.
(§2) This basic protocol was the standard for testing the patterns of AAQ agents at 20 μM, compared to 20 μM of DRAQ5 as the benchmark reference (both in terms of cellular location and ability to detect the red fluorescence).
Low resolution wide-field fluorescence microscopy was used to evaluate cell labelling in fixed human osteosarcoma U-2 OS cells. The system was an Axiovert 100 microscope (Carl Zeiss, Welwyn Garden City, UK) ×10 0.3 NA air objective lens and an ORCA-ER CCD camera (Hamamatsu, Reading, UK). Illumination was controlled by a shutter in front of the transmission lamp. Image capture was controlled using Metamorph software. This evaluates the ability of the compounds to label cellular compartments without active uptake or efflux prohibiting delivery into the given cell. Image collection was performed after 1 h of exposure to probes in PBS. The calibration bar represents 50 μm.

A549 = experiment: MTT cellular viability (growth inhibition) assay, A549; type: cell-based; conditions: Homo sapiens, 0.25-100 μM, 72 h, Table 3
Protocol: (§3) The viability of A549 or MCF7 in response to compounds was determined using the MTT (3-(4,5-dimethylthiazolyl-2-)-2, 5-diphenyltetrazolium bromide) assay according to the protocol set out in Mosmann T., Rapid colorimetric assay for cellular growth and survival: application to proliferation and cytotoxicity assays. Journal of immunological methods 1983; 65:55-63.
(§4) Initially, cells were seeded into a rounded-bottom 96 well plate (Corning) at six different cell seeding densities (0.5×104, 1×104, 2×104, 3×104, 4×104, and 5×104) per mL of R10 media (cells/mL) in order to optimise the assay and establish the most suitable seeding assay. Concentration of 1×10^4 cells/mL was determined to be the optimum seeding density for both cell lines for 96 h total incubation. A control lane contained supplemented R10 only. The 96 well plates were incubated overnight at 37° C., 5% CO2 and 100% humidity to allow cell adhesion. Cells were then treated respectively with novel AAQs (0.25-100 μM) or growth inhibition (IC50) of compounds of the invention was studied against MCF7 and A549 cancer cell lines. Compounds were tested with a concentration range between 0.25 and 100 μM for 72 h and doxorubicin, as positive cytotoxic control, was tested in parallel at the same doses.

[2] = Absorption and fluorescence spectra of compounds in PBS or HEPES; type: physicochemical; conditions: for fluorescence emission, 540 nm (Ex in PBS): excited at 540 nm
Protocol: The compounds were exited at 540 nm and at the wavelength of their absorption peak 1 (λ1 nm). The far-red fluorescent DNA dye DRAQ5 was used as reference.
Compounds were dissolved in DMSO (Sigma) to 20 mM stock concentration. DRAQ5 (Biostatus Ltd) was used as a control anthraquinone agent dissolved in deionised water. Working solutions were prepared in PBS (phosphate buffered saline; Sigma) or HEPES (4-(2-hydroxyethyl)-1-piperazineethanesulfonic acid; Sigma) at 20 or 40 μM. Probe solutions (20 μM), respectively in PBS or HEPES, were pipetted into a 1 mL quartz cuvette (Thermo Fisher Scientific). After obtaining baseline spectra in relevant buffer to zero the instrument, absorbance measurements were obtained using a Beckmann Coulter DU 800 UV/Visible spectrophotometer. The excitation wavelengths were scanned from 280 to 800 nm. Fluorescent spectral scans were performed using a Perkin Elmer LS-50B Luminescence spectrophotometer. To obtain emission scans, the excitation wavelength was set accordingly to the maximum values for each agent or another designated excitation wavelength that matches typical laser lines; and the emission wavelength were scanned from 400 nm to 900 nm in 1 nm increments. A Xenon flash lamp was used as the light source, with the lamp energy set to high. For each data point ten measurements were acquired with the photomultiplier tube sensitivity set at 125.
Compounds were excited at a wavelength corresponding to the first absorbance peak 1 (FIG. 1A and FIG. 1B show absorption (line) and fluorescence (dots) spectra of compounds; both are normalised to peak value.

A549 live cells = experiment: Loading of A549 live cells, wide-field fluorescence microscopy; type: cell-based, human; conditions: 20 μM, 30 min incubation, FIG. 3
Protocol: as §1, §2
Low resolution wide-field fluorescence microscopy was used to evaluate cell uptake and localisation of the probe compounds. The system was an Axiovert 100 microscope (Carl Zeiss, Welwyn Garden City, UK) ×10 0.3 NA air objective lens and an ORCA-ER CCD camera (Hamamatsu, Reading, UK). Illumination was controlled by a shutter in front of the transmission lamp. Image capture was controlled using Metamorph software. Human non-small cell lung cancer A549 cell line was used as the cell model to determine whether variation of the probe loading and localisation occurred in cell population sustaining a “side population” (SP) (Smith P J, Wiltshire M, Chappell S C, Cosentino L, Burns P A, Pors K, Errington R J. Kinetic analysis of intracellular Hoechst 33342—DNA interactions by flow cytometry: misinterpretation of side population status? Cytometry A 2013; 83:161-9) with a known capacity to efflux xenobiotic molecules, including the DNA dye Hoechst 33342.
Cells were incubated for 30 min with each compound and then images were collected at a 30 ms exposure time using low resolution wide-field fluorescence microscopy. Using an Axiovert 100 microscope (Carl Zeiss, Welwyn Garden City, UK) ×10 0.3 NA air objective lens and an ORCA-ER CCD camera (Hamamatsu, Reading, UK). Illumination was controlled by a shutter in front of the transmission lamp. Image capture was controlled using Metamorph software. The calibration bar represents 50 μm.

A549 cells = experiment: Pulse exposure to probes, time-lapse, reimaged after 72 h; type: cell-based, human; conditions: 20 uM for 15 mins, washout, T=72 h
Protocol: In this regard, A549 cells were seeded in a 24 well coverslip bottomed-plate, cultured overnight in McCoys media for 24 or 48 hours. The plates were placed onto an inverted automated microscope, with the capacity for acquiring an image sequence of different wells (therefore exposure to different agent labelling). An Axiovert 100 microscope (Carl Zeiss, Welwyn Garden City, UK) was fitted with an incubator for 37° C./5% CO2 maintenance (Solent Scientific, Portsmouth, UK), and an ORCA-ER CCD camera (Hamamatsu, Reading, UK). Illumination was controlled by a shutter in front of the transmission lamp, and an x, y positioning stage with separate z-focus (Prior Scientific, Cambridge, UK) controlled multi-field acquisition. Image capture was controlled using Metamorph software.
Cells were exposed to a constant dose (0-5 μM) or a pulsed dose of 0 or 20 μM agent for 15 minutes followed by washout with warmed full media.
All images were collected with a ×10 (PH1) apochromat objective lens providing a field size of 500 times 500 microns. In this case a phase contrast image was collected every 30 minutes for 72 hours. Single cell growth and expansion can be tracked over time. The cells were harvested and run through a flow cytometry (typically a FACS Calibur 635 nm excitation/661/16 emission).
A549 cells were loaded with 20 uM BST-101, BST-109 or BST-110 for 15 mins followed by washout. Cells were then time-lapsed and reimaged after T=72 h, as before, […]

U-2 OS cells = experiment: Confocal laser scanning microscopy (CLSM) localisation analysis; type: cell-based, human; conditions: 30 min incubation, Ex 637 nm, Em >665 nm, FIG. 4 and 5
Protocol: Confocal laser scanning microscopy (CLSM) was used to analyse the localisation of compounds BST-100, BST-101 and BST-106 with the U-2 OS cells, as it permitted the acquisition of volume limited optical sections through the cell and media. Excitation (637 nm) and emission (>665 nm) values for the probe analysis were the optimal conditions. The data sets obtained were processed and assembled into a single maximum projection image.
The patterns were analysed after 30 min incubation at different z depths and eliminating the solution background. The nucleus/cytoplasm ratio was calculated to quantify the localisation of the probe per cell.
A Radiance CLSM (BioRad Microscience) was used attached to an inverted Nikon microscope. Image acquisition was performed using excitation (637 nm) and emission (>665 nm) wavelengths. The histogram plot reports the nucleus/cytoplasm index to determine DNA binding in live cells. The calibration bar represents 10 μm.
The compounds BST-108, BST-109 were analysed in the same way.

MCF7 = experiment: MTT cellular viability (growth inhibition) assay, MCF7; type: cell-based; conditions: Homo sapiens, 0.25-100 μM, 72 h, Table 3
Protocol: as §3, §4

MCP1 = experiment: Further tests against cell lines, MCP1; type: cell-based; conditions: ratio to A2780
Protocol: (§5) Further tests were carried out against A2780, 2780AD and MCP1 cell lines.

2780AD = experiment: Further tests against cell lines, 2780AD; type: cell-based; conditions: ratio to A2780
Protocol: as §5

2780/cp70 = experiment: Further tests against cell lines, 2780/cp70; type: cell-based; conditions: ratio to A2780

Compound	staining pattern in fixed cells [1]	IC50 (A549)	peak excitation wavelength ([2]; excitation wavelength used for fluorescence spectra of FIG. 1A/1B)	fluorescence emission, 540 nm (Ex in PBS) ([2]; PBS, 20 μM)	staining pattern in live cells (A549 live cells)	cell division and signal retention / location after pulse exposure (A549 cells)	subcellular localisation by CLSM (U-2 OS cells)	IC50 (MCF7)	fluorescence brightness / background in fixed cells [1]	RF (MCP1) (MCP1)	RF (2780AD)	fluorescence emission, λ1 nm (Ex in HEPES) ([2]; excited at absorption peak 1 (λ1), HEPES, 20 μM)	fluorescence emission, λ1 nm (Ex in PBS) ([2]; excited at absorption peak 1 (λ1), PBS, 20 μM)	RF (2780/cp70)
COC(CCCCNc1ccc(NCCCCC(OC)OC)c2c1C(=O)c1ccccc1C2=O)OC [BST-101, 1,4-Bis(5,5-dimethoxypentylamino)anthracene-9,10-dione]	diffuse cytoplasmic staining, with some perinuclear and nucleoli labelling	> 100 µM	540 nm	712 nm	heterogeneous cytoplasmic staining	dividing, and signal retained in the same membrane compartment as at the start	low levels of probe in the perinuclear region, with probable overload in Golgi body and large vesicles	0.75 µM						
COC(CNCCNc1ccc(NCCNCC(OC)OC)c2c1C(=O)c1c(O)ccc(O)c1C2=O)OC [BST-200, 1,4-bis((2-((2,2-dimethoxyethyl)amino)ethyl)amino)-5,8-dihydroxyanthracene-9,10-dione]	cytoplasmic staining, good object recognition, and some heterogeneity on nuclear staining			690 nm	heterogeneity on cytoplasmic load on, with bright fluorescence signal and staining of mitotic figures				very bright fluorescence	0.26	2.9	684 nm	688 nm	0.09
COC(CNCCCCCCNc1ccc(NCCN(C)C)c2c1C(=O)c1c(O)ccc(O)c1C2=O)OC [BST-301, 1-((6-((2,2-dimethoxyethyl)amino)hexyl)amino)-4-((2-(dimethylamino)ethyl)amino)-5,8-dihydroxyanthracene-9,10-dione]										0.39	2.8			0.10

— US11447638B2, “Acetalanthraquinone derivatives useful for cellular staining” (BIOSTATUS LIMITED, priority 2016, dated 2022)
